Measured values from patent publication US4855086A, “Novel pesticides, preparation and use” (Burroughs Wellcome Co., priority 1982, dated 1989).
Read-outs that look alike come from different tables or passages of the source.

Assays:
[1] = system: gamma-aminobutyric acid (GABA) release from insect synaptosomes; assay: Release of 3H-labelled GABA from insect synaptosomes (Example H); assay type: biochemical; settings: 1 = most potent of five compounds
From the text: Interference with gamma-aminobutyric acid (GABA) release from insect synaptosomes is thought to be important in the insecticidal action of the compounds of the invention. Using published procedures (E. G. Gray and V. P. Whittaker, Journal of Anatomy 96, 79-87 (1962); G. Levi, V. Gallo and M. Raiter, Neurochemical Research 5(3), 281-295 (1980)), compounds of Formula I were compared with related compounds outside the scope of the invention.
Arranged in decreasing order of potency (release of ^3 H-labelled GABA), the compounds were: […]

[2] = system: female Musca domestica (WRL strain); assay: Topical application to houseflies with and without piperonyl butoxide pretreatment (Example A); settings: for percent knockdown: 6 μg applied, 1 hour; for mortality at 0.006 mg: Musca domestica, topical, 24 h
Protocol: Where pretreatment with a synergist was used, the test compound was applied 1 hour after application of the synergist (6 μg piperonyl butoxide (PB) per insect). Knockdown was assessed after 1 hour, and mortality after 24 hours.

Sitophilus granarius = assay type: in vivo; settings: 200 (+1000 pb) ppm; 6 days
[3] = system: third instar larvae of Aedes aegypti; assay: Exposure of mosquito larvae to aqueous suspension with piperonyl butoxide (Example D); assay type: in vivo; settings: 2.5 (+12.5 pb) ppm; 18 hours
Protocol: Mortality was assessed after 18 hours.

male Blattella germanica = assay: Exposure of cockroaches to deposit on glass with piperonyl butoxide (Example B); assay type: in vivo; settings: 700 (+700 pb) mg m^-2
Protocol: Knockdown was assessed after 10 and 60 minutes and mortality after 1 and 6 days.

houseflies = assay: Potentiation by pyrethroids, spray chamber, S-bioallethrin (Example G (ii)); assay type: in vivo, housefly (Musca domestica); settings: mixture ratio 45:1
From the text: Solutions of the compounds were sprayed into a chamber and houseflies released into the chamber.

female Aedes aegypti = assay: Application to adult mosquitoes with piperonyl butoxide (Example E); assay type: in vivo; settings: 2 (4 pb) μg applied
Protocol: Knockdown was assessed after 1 hour and mortality after 24 hours.

[4] = system: Female houseflies (Musca domestica); assay: Potentiation by other unsaturated amides in houseflies (Example G (i)); assay type: in vivo; settings: 6 μg PB one hour earlier
Protocol: Female houseflies (Musca domestica) were treated with solutions of compounds of Formula I and a potential synergist both dissolved in butanone, the flies having been treated one hour earlier with 6 μg piperonyl butoxide (PB).
The dose required to prevent flight of half the flies 10 minutes after application of the compound (KD50) was determined and the factor of potentiation (FOP) was calculated by the Equation of the Harmonic Mean for mixtures of the compounds.

[5] = system: fully engorged female Boophilus microplus, susceptible strain; assay: Cattle tick injection test (Example F (i)); assay type: in vivo; settings: 14 days; for No. dead / No. laying viable eggs: 10 ticks
Protocol: The compound was supplied as a […] solution in DMSO:Acetone (1:1). Administration of the compound was by means of a microapplicator which was preset to deliver 0.2 μl of solution. The compound in solution was injected into fully engorged female Boophilus microplus, susceptible strain, at a site just lateral to the mouthparts at the rate of 10 μg/tick. Reducing the concentration reduced the dose delivered. After injection the ticks were maintained at 24° C. and 85% RH for 14 days. At this time the ticks were examined for the presence of viable eggs which gave the percent inhibition of reproduction (% IR). The number of dead ticks was also noted.

[6] = system: fully engorged female B. microplus susceptible strain; assay: Cattle tick adult immersion test (Example F (ii), (iii)); assay type: in vivo, Boophilus microplus; settings: adults, 10 minutes immersion, 14 days
Protocol: The compound was supplied as a 100 mg/liter solution in Esso 200/[…]. Dilution with water gave the required concentrations. Groups of 20 fully engorged female B. microplus susceptible strain were placed in a mesh basket which was immersed in the test dilution for 10 minutes. After immersion the ticks were removed, dried and then fixed to double-sided adhesive tape which was itself affixed to white plastic boards. The boards holding the ticks were held at 24° C. and 85% RH for 14 days. Individual egg masses were scored from 0-4 for quality and quantity and the total score for each group was obtained. The scores were corrected for water control oviposition, plotted on log-probit paper and the % concentration inhibiting 50% and 99% of viable oviposition determined.

B. microplus Susceptible = assay: Larval tick immersion test, susceptible strain (Example F); assay type: in vivo, Boophilus microplus; settings: larvae
From the text: (§1) Larval ticks were immersed using a published method (Shaw, R. D., Cook, M. and Carson, R. E. (1968). J. Econ. Ent. 61, 1590). Mortality data are presented for B. microplus susceptible and pyrethroid resistant strain (Malchi).

[7] = system: B. microplus pyrethroid resistant strain (Malchi); assay: Larval tick immersion test, pyrethroid resistant strain (Example F); assay type: in vivo, Boophilus microplus; settings: larvae
From the text: as §1

[8] = 6 μg PB pretreatment 1 hour before
[9] = read-out: percent mortality, 6 μg applied, 6 μg PB pretreatment 1 hour before, 24 hours
[10] = read-out: percent mortality, 6 μg applied, synergist: none, 24 hours

CC(C)CNC(=O)/C=C/CC/C=C\C=C\c1cccc(C(F)(F)F)c1
rank in decreasing order of potency (release of ^3 H-labelled GABA) [1]: 4

CC(C)CNC(=O)/C=C/CC/C=C\c1ccccc1 [Example 3, N-isobutyl-7-phenylhepta-2E,6Z-dienamide]
percent knockdown [2, 8]: 90%
percent knockdown ([2]; synergist: none): 5%
mortality at 0.006 mg [2, 9]: 95%
mortality at 0.006 mg [2, 10]: 2.5%
% mortality (Sitophilus granarius): 100%
% mortality [3]: 100%
% knockdown 10 mins (male Blattella germanica): 13%
% knockdown 60 mins (male Blattella germanica): 20%
% mortality 1 day (male Blattella germanica): 20%
% mortality 6 days (male Blattella germanica): 20%

CC(C)CNC(=O)/C=C/CC/C=C\C=C\c1ccccc1 [Example 9, N-isobutyl-9-phenyl-nona-2 (E),6(Z),8(E)-trienamide]
percent knockdown [2, 8]: 100%
percent knockdown ([2]; synergist: none): 95%
mortality at 0.006 mg [2, 9]: 100%
mortality at 0.006 mg [2, 10]: 0%
% mortality (Sitophilus granarius): 100%
% mortality [3]: 100%
% knockdown 10 mins (male Blattella germanica): 7%
% knockdown 60 mins (male Blattella germanica): 7%
% mortality 1 day (male Blattella germanica): 33%
% mortality 6 days (male Blattella germanica): 40%
LC50 (concentration for death of half the flies) (houseflies): 1.8%
% knockdown (female Aedes aegypti; 1 hour): 70%
% mortality (female Aedes aegypti; 24 hours): 80%
KD50 (dose required to prevent flight of half the flies 10 minutes after application) [4]: 8.4 μg/fly
No. dead ([5]; 1 μg injected): 0
No. laying viable eggs ([5]; 1 μg injected): 8
% IR (percent inhibition of reproduction) ([5]; 1 μg injected): 20%
No. dead ([5]; 5 μg injected): 1
No. laying viable eggs ([5]; 5 μg injected): 3
% IR (percent inhibition of reproduction) ([5]; 5 μg injected): 70%
No. dead ([5]; 10 μg injected): 3
No. laying viable eggs ([5]; 10 μg injected): 1
% IR (percent inhibition of reproduction) ([5]; 10 μg injected): 90%
mortality at 0.001 mg ([5]; Rhipicephalus microplus, 336 h, 1 μg injected, read-out: % Kill): 0%
mortality at 0.005 mg ([5]; Rhipicephalus microplus, 336 h, 5 μg injected, read-out: % Kill): 10%
mortality at 0.01 mg ([5]; Rhipicephalus microplus, 336 h, 10 μg injected, read-out: % Kill): 30%
IR50 (% concentration inhibiting 50% of viable oviposition) [6]: 0.026%
IR99 (% concentration inhibiting 99% of viable oviposition) [6]: 0.1%
LC50 [6]: 0.1%
rank in decreasing order of potency (release of ^3 H-labelled GABA) [1]: 3
LC50 (B. microplus Susceptible): 0.00044%
LC50 [7]: 0.00022%

CC(C)CNC(=O)/C=C/C=C/CC/C=C\C=C\c1cccc(C(F)(F)F)c1 [Example 10, N-isobutyl-11-(3'-trifluoromethylphenyl)-(2E,4E,8Z,10E)-undecatetrenamide]
KD50 (dose required to prevent flight of half the flies 10 minutes after application) [4]: 5.6 μg/fly
rank in decreasing order of potency (release of ^3 H-labelled GABA) [1]: 1

CCCCC/C=C/C=C/C(=O)NCC(C)C [N--isobutyl-(2E,4E)-decadienamide, reference compound]
KD50 (dose required to prevent flight of half the flies 10 minutes after application) [4]: 77 μg/fly

CCCCOCCOCCOCc1cc2c(cc1CCC)OCO2 [PB, piperonyl butoxide, reference compound]
mortality at 0.006 mg [2]: 0%
knockdown ([2]; PB alone, 6 μg per fly): 0%

C=CCC1=C(C)[C@@H](OC(=O)[C@@H]2[C@@H](C=C(C)C)C2(C)C)CC1=O [S-bioallethrin, reference compound]
LC50 (concentration for death of half the flies) (houseflies): 0.05%

CC(C)CNC(=O)/C=C/C=C/CC/C=C\C=C\c1ccc2c(c1)OCO2 [reference compound]
rank in decreasing order of potency (release of ^3 H-labelled GABA) [1]: 2

CC(C)CNC(=O)/C=C/CC/C=C\C=C\c1ccc2c(c1)OCO2 [reference compound]
rank in decreasing order of potency (release of ^3 H-labelled GABA) [1]: 5
